Experimental data: ChEMBL document CHEMBL1201862, “PubChem BioAssay data set” (2004)
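Interpolation was linear, between the two tested concentrations surrounding the appropriate level; five concentrations were tested over 48 hours in 96-well plates. GI50 marks 50% less growth.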 Calls of active or inactive are those of the source. Cut-off read from the data, not from the text of the source: active = GI50 up to about 1.1 µM and inactive = higher.

Columns and labels:
Assay in all cases: DTP human tumour cell line panel, 48 h
786-0 = tested on: 786-0
A498 = tested on: A498
ACHN = tested on: ACHN
COLO 205 = tested on: COLO 205
EKVX = tested on: EKVX
HCC 2998 = tested on: HCC 2998
HL-60 = tested on: HL-60
OVCAR-3 = tested on: OVCAR-3
OVCAR-8 = tested on: OVCAR-8
RPMI-8226 = tested on: RPMI-8226
SF-268 = tested on: SF-268
SK-OV-3 = tested on: SK-OV-3
SN12C = tested on: SN12C
U-251 = tested on: U-251
HCT-15 = tested on: HCT-15
SNB-19 = tested on: SNB-19

Row | SMILES | GI50 (786-0) | GI50 (A498) | GI50 (ACHN) | GI50 (COLO 205) | GI50 (EKVX) | GI50 (HCC 2998) | GI50 (HL-60) | GI50 (OVCAR-3) | GI50 (OVCAR-8) | GI50 (RPMI-8226) | GI50 (SF-268) | GI50 (SK-OV-3) | GI50 (SN12C) | GI50 (U-251) | GI50 (HCT-15) | GI50 (SNB-19)
1 | CC/C=C\C/C=C\C/C=C\CCCCCCCC(=O)OCC | > 100 µM (inactive) | > 100 µM (inactive) | > 100 µM (inactive) | > 100 µM (inactive) | > 100 µM (inactive) | > 100 µM (inactive) | > 100 µM (inactive) | > 100 µM (inactive) | > 100 µM (inactive) | 70.6 µM (inactive) | > 100 µM (inactive) | > 100 µM (inactive) | > 100 µM (inactive) | > 100 µM (inactive) |  | 
2 | c1ccc(N2CCN(CCCN3CCc4c([nH]c5ccccc45)C3c3cccnc3)CC2)cc1 (stereo not given) | 33.9 µM (inactive) | > 100 µM (inactive) | > 92.9 µM (inactive) | 20.8 µM (inactive) | > 100 µM (inactive) | 40.4 µM (inactive) | 20 µM (inactive) | > 49.8 µM (inactive) | > 100 µM (inactive) | 76.2 µM (inactive) |  | > 100 µM (inactive) | > 54.6 µM (inactive) | 19.1 µM (inactive) | 56 µM | > 100 µM (inactive)
3 | COc1ccc(NC(=O)C(=O)Cc2ccc([N+](=O)[O-])c([N+](=O)[O-])c2CC(=O)C(=O)Nc2ccc(OC)cc2OC)c(OC)c1 | > 100 µM (inactive) | > 100 µM (inactive) | > 100 µM (inactive) | > 100 µM (inactive) | > 100 µM (inactive) | > 100 µM (inactive) | > 100 µM (inactive) | > 100 µM (inactive) | > 100 µM (inactive) | > 100 µM (inactive) | > 100 µM (inactive) | > 100 µM (inactive) | > 100 µM (inactive) | > 100 µM (inactive) | > 100 µM | > 100 µM (inactive)
4 | CC(C)COC(=O)N1N=NC2C3CC(=O)C(O3)C21 (stereo not given) | > 100 µM (inactive) | > 100 µM (inactive) | > 100 µM (inactive) | > 100 µM (inactive) | > 100 µM (inactive) | > 100 µM (inactive) |  | > 100 µM (inactive) | > 100 µM (inactive) | > 100 µM (inactive) | > 100 µM (inactive) | > 100 µM (inactive) | > 100 µM (inactive) | > 100 µM (inactive) | > 100 µM | > 100 µM (inactive)
5 | CCc1cccc(CC)c1NC1=CC(=O)C(=O)c2ccccc21 | 18.9 µM (inactive) | 22.3 µM (inactive) | 13.1 µM (inactive) | > 100 µM (inactive) | 14.1 µM (inactive) | 15 µM (inactive) | > 100 µM (inactive) | 2.84 µM (inactive) | 16.7 µM (inactive) | 40.2 µM (inactive) | 22.5 µM (inactive) | 31.6 µM (inactive) | 27.5 µM (inactive) | 15.3 µM (inactive) | 10.3 µM | 23 µM (inactive)
6 | Cc1ccc(N2C(=O)N(c3ccc(C)cc3)C3(SC=NN3C)C2=O)cc1 (stereo not given) | > 100 µM (inactive) | 73.1 µM (inactive) | 65.6 µM (inactive) | 91 µM (inactive) | > 100 µM (inactive) | 98.9 µM (inactive) | 22.6 µM (inactive) | 19.5 µM (inactive) | > 100 µM (inactive) | 49.2 µM (inactive) | > 100 µM (inactive) | > 100 µM (inactive) | > 100 µM (inactive) | > 100 µM (inactive) |  | > 100 µM (inactive)
7 | N/C(=N\O)N/N=C/c1ccc2c(c1)OCCO2 |  | 27.2 µM (inactive) |  | 7.28 µM (inactive) | 9.27 µM (inactive) |  | 18.2 µM (inactive) | 3.15 µM (inactive) | 8.49 µM (inactive) | 16.8 µM (inactive) | 4.81 µM (inactive) | 34 µM (inactive) | 29.6 µM (inactive) | 21.3 µM (inactive) | 10.3 µM | 9.82 µM (inactive)
8 | C/C(=N\NC(=S)Nc1ccc(C(=O)O)cc1)c1ccccn1 | 17.4 µM (inactive) | 25 µM (inactive) | 16.7 µM (inactive) | 18.4 µM (inactive) | 27.9 µM (inactive) | 15 µM (inactive) | 20.7 µM (inactive) | 13.7 µM (inactive) | 16 µM (inactive) | 29.8 µM (inactive) | 49.9 µM (inactive) |  | 19.7 µM (inactive) | 24.2 µM (inactive) | 26.5 µM | 
9 | O=C1Cc2ccccc2N1c1c(Cl)cccc1Cl | 92.5 µM (inactive) | 50.8 µM (inactive) | 70.1 µM (inactive) | 42.3 µM (inactive) | 63.5 µM (inactive) | 76.7 µM (inactive) | 15.3 µM (inactive) | 57.1 µM (inactive) | 93.3 µM (inactive) | 19.6 µM (inactive) | 71 µM (inactive) | 0.424 µM (active) | 89.1 µM (inactive) | 63.7 µM (inactive) | 46.9 µM | 79.1 µM (inactive)
10 | Cc1cccc(NC(=O)C(=O)C(C(=O)c2ccccc2F)C2OC(=O)c3ccccc32)c1Cl (stereo not given) |  | 60.7 µM (inactive) | 53.1 µM (inactive) | 20 µM (inactive) | 37.9 µM (inactive) | 22.5 µM (inactive) | 20.1 µM (inactive) |  | 20.1 µM (inactive) | 26.9 µM (inactive) | 21.4 µM (inactive) | 37.2 µM (inactive) | 36.7 µM (inactive) | 14.5 µM (inactive) | 22.4 µM | 31.1 µM (inactive)
11 | CC1(c2ccc(F)cc2)C(C#N)C(=O)NC(=O)C1C#N (stereo not given) | > 100 µM (inactive) | 41.4 µM (inactive) | > 100 µM (inactive) | > 100 µM (inactive) | 58.1 µM (inactive) | > 100 µM (inactive) | > 100 µM (inactive) | > 100 µM (inactive) | > 100 µM (inactive) | > 100 µM (inactive) | > 100 µM (inactive) | > 100 µM (inactive) | > 100 µM (inactive) |  | > 100 µM | > 100 µM (inactive)
12 | CCOC(=O)Nc1ccc(S(=O)(=O)OC)cc1.CCOC(=O)Nc1ccc(S(=O)(=O)OC)cc1.Cc1cn(C2CC(O)C(CO)O2)c(=O)[nH]c1=O | 35.4 µM (inactive) | > 100 µM (inactive) | > 100 µM (inactive) | > 100 µM (inactive) | > 100 µM (inactive) | > 100 µM (inactive) | 91.8 µM (inactive) | > 100 µM (inactive) | > 100 µM (inactive) | 36.5 µM (inactive) | > 100 µM (inactive) | > 100 µM (inactive) | > 100 µM (inactive) |  | 18.6 µM | > 100 µM (inactive)
13 | COC(=O)CCC(=O)CC(=O)C1=NS(=O)(=O)c2nc(S(N)(=O)=O)c(Cl)cc2N1 | > 10 µM (inactive) | > 100 µM (inactive) | > 100 µM (inactive) | > 100 µM (inactive) | > 100 µM (inactive) | > 100 µM (inactive) | > 100 µM (inactive) | > 100 µM (inactive) | > 100 µM (inactive) | > 100 µM (inactive) | > 100 µM (inactive) | > 100 µM (inactive) | > 100 µM (inactive) | > 100 µM (inactive) | > 100 µM | > 100 µM (inactive)
14 | CCC1N2CCCCC2[C@@H]2c3[nH]c4ccccc4c3CCN12 (stereo not given in full) | > 100 µM (inactive) | > 100 µM (inactive) | > 100 µM (inactive) | > 100 µM (inactive) | > 100 µM (inactive) | > 100 µM (inactive) | > 100 µM (inactive) | > 100 µM (inactive) | > 100 µM (inactive) | > 100 µM (inactive) | > 100 µM (inactive) | > 100 µM (inactive) | > 100 µM (inactive) | > 100 µM (inactive) | > 100 µM | > 100 µM (inactive)
15 | CCOc1cccc2[s+]snc12 | > 100 µM (inactive) | > 100 µM (inactive) | > 100 µM (inactive) | > 100 µM (inactive) | > 100 µM (inactive) | > 100 µM (inactive) | 30.2 µM (inactive) | 30.3 µM (inactive) | 54.3 µM (inactive) |  | 98.4 µM (inactive) | > 100 µM (inactive) | > 100 µM (inactive) | 33.8 µM (inactive) | > 100 µM | > 100 µM (inactive)
16 | CC(C)(C)c1cc(Cc2ccc(S(C)(=O)=O)cc2)c(O)c(C(C)(C)C)c1 | 16.1 µM (inactive) | 16.1 µM (inactive) | 13.7 µM (inactive) |  | 15.1 µM (inactive) | 16.2 µM (inactive) | 16.5 µM (inactive) |  | 14.7 µM (inactive) | 10.8 µM (inactive) | 13.2 µM (inactive) | 21.7 µM (inactive) | 15.3 µM (inactive) | 15.1 µM (inactive) | 16.9 µM | 15.5 µM (inactive)
17 | COC(=O)C1=CC2OC1(C)CCC2=O (stereo not given) | > 100 µM (inactive) |  | > 100 µM (inactive) | > 100 µM (inactive) | > 100 µM (inactive) | > 100 µM (inactive) | 26.9 µM (inactive) | > 100 µM (inactive) | 50.1 µM (inactive) | 47.6 µM (inactive) | > 100 µM (inactive) | > 100 µM (inactive) | > 100 µM (inactive) | > 100 µM (inactive) | 67.9 µM | > 100 µM (inactive)
18 | CCOC(=O)C(C(=O)OCC)c1ccc([N+](=O)[O-])o1 | 6.64 µM (inactive) | > 10 µM (inactive) | 10.2 µM (inactive) | 3.27 µM (inactive) | 18.7 µM (inactive) | 17.3 µM (inactive) | 2.65 µM (inactive) | 5.73 µM (inactive) | 5.24 µM (inactive) | 6.87 µM (inactive) | 25.4 µM (inactive) | 62.2 µM (inactive) | 18 µM (inactive) | 18.7 µM (inactive) | 17.3 µM | > 100 µM (inactive)
19 | CC(C)(C1=NC(C(C)(C)C)CO1)C1=N[C@@H](C(C)(C)C)CO1 (stereo not given in full) | > 100 µM (inactive) |  | > 100 µM (inactive) | > 100 µM (inactive) | > 100 µM (inactive) | > 100 µM (inactive) | > 100 µM (inactive) | > 100 µM (inactive) | > 100 µM (inactive) | > 100 µM (inactive) | > 100 µM (inactive) | > 100 µM (inactive) | > 100 µM (inactive) | > 100 µM (inactive) | > 100 µM | > 100 µM (inactive)
